This passage reports IC50 and MIC results from ChEMBL document CHEMBL3808375, “Design of Novel Aminoglycoside Derivatives with Enhanced Suppression of Diseases-Causing Nonsense Mutations” (ACS Med Chem Lett, 2016).

≈ marks a conversion by molar mass, not a printed value. Where only a bound is given, the exact number is not on record here.

Test [1] in a line: Binding affinity to decoding site rRNA of ribosome in TNT rabbit reticulocyte lysate using luciferase T7 control DNA plasmid assessed as inhibition of translation incubated for 60 mins by luciferase reporter gene based coupled transcription/translation assay. Also on record: species or system Oryctolagus cuniculus. (In general: In a reporter assay the amount or activity of a reporter protein is the signal.)

In test [2] the test system is Bacillus spizizenii. In words: microbe, parasite or virus in culture. It is filed as functional. Particulars: ATCC 6633.
Description: Antibacterial activity against Bacillus subtilis ATCC 6633 by double microdilution assay
Test [3] relates to Escherichia coli. In words: microbe, parasite or virus in culture. It is filed as functional. Particulars: R477/100.
Description: Antibacterial activity against Escherichia coli R477/100 by double microdilution assay
Test [4] in a line: Binding affinity to decoding site rRNA of ribosome in Escherichia coli using Escherichia coli S30 circular DNA assessed as inhibition of translation incubated for 60 mins by luciferase reporter gene based coupled transcription/translation assay.
Test [5] is described as follows: Binding affinity to decoding site rRNA of ribosome in Escherichia coli using Escherichia coli S30 circular DNA assessed as inhibition of translation incubated for 20 mins by luciferase reporter gene based coupled transcription/translation assay.

Consider `CN[C@@H]1[C@@H](O)[C@@H](O[C@@H]2[C@@H](O)[C@H](O[C@H]3O[C@H](CN)CC[C@H]3N)[C@@H](N)C[C@H]2N)OC[C@]1(C)O`, for which, in test [1], the IC50 stood at 62 µM. Further, the MIC in test [2] is less than 0.75 µM.
`NC[C@H]1O[C@@H](O[C@H]2[C@H](O)[C@@H](N)C[C@@H](N)[C@@H]2O[C@H]2O[C@H]([C@H](O)CO)[C@@H](O)[C@H](O)[C@H]2N)[C@H](O)[C@@H]1O`: the IC50 in test [1] is 7.5 µM; in test [4], 0.7 µM. Besides, the MIC in test [3] is more than 273 µM; in test [2] it was 34 µM (≈ 16.5 µg/mL).
`N[C@H]1[C@@H](O[C@@H]2[C@@H](O)[C@H](O)[C@@H](N)C[C@H]2N)O[C@H]([C@@H](O)CO)[C@@H](O)[C@@H]1O`: the IC50 in test [1] was 516 µM; in test [4], 91.9 µM. For the same compound, the MIC in test [3] and in test [2] was more than 375 µM each time.
Take `N[C@H]1[C@@H](O[C@@H]2[C@@H](O)[C@H](O)[C@@H](N)C[C@H]2N)O[C@H]([C@H](O)CO)[C@@H](O)[C@@H]1O`: the IC50 came to 120 µM in test [1] and 11 µM in test [4]. Further, the MIC is more than 311 µM in test [3] and 311 µM (≈ 110 µg/mL) in test [2].
With `C[C@@H](O)[C@H]1O[C@H](O[C@@H]2[C@@H](O)[C@H](O)[C@@H](N)C[C@H]2N)[C@H](N)[C@@H](O)[C@@H]1O`, the IC50 in test [1] worked out at 347 µM; in test [4] it was 6 µM.
Consider `C[C@H](N)[C@H]1O[C@@H](O[C@H]2[C@H](O)[C@@H](N)C[C@@H](N)[C@@H]2O[C@H]2O[C@H]([C@H](O)CO)[C@@H](O)[C@H](O)[C@H]2N)[C@H](O)[C@@H]1O`, for which the IC50 in test [1] and in test [4] was 1.2 µM each time. The MIC in test [3] is more than 257 µM; in test [2], 64 µM (≈ 31.9 µg/mL).
As for `C[C@H](N)[C@H]1O[C@@H](O[C@H]2[C@H](O)[C@@H](N)C[C@@H](N)[C@@H]2O[C@H]2O[C@H]([C@@H](C)O)[C@@H](O)[C@H](O)[C@H]2N)[C@H](O)[C@@H]1O`, the values for the IC50 in test [1] and in test [4] were 1.5 µM and 1.1 µM, respectively. Further, the MIC is 1270 µM (≈ 611 µg/mL) in test [3] and 156 µM (≈ 75.3 µg/mL) in test [2].
Turning to `CN[C@@H]1[C@@H](O)[C@@H](O[C@H]2[C@H](O)[C@@H](O[C@H]3O[C@H](C(C)O)[C@@H](O)[C@H](O)[C@H]3N)[C@H](N)C[C@@H]2N)OC[C@]1(C)O` (some centres undefined), the results for the MIC in test [3] and in test [2] were 9 µM (≈ 4.47 µg/mL) and less than 1.25 µM, respectively. In addition, the IC50 in test [4] came to 0.01 µM.
Regarding `N[C@H]1[C@@H](O[C@@H]2[C@@H](O)[C@H](O)[C@@H](N)C[C@H]2N)O[C@H](C(O)CO)[C@@H](O)[C@@H]1O` (mixture of isomers), in test [5], the IC50 is 24 µM.
`N[C@H]1[C@@H](O[C@H]2[C@H](O)[C@@H](O)[C@H](N)C[C@@H]2N)O[C@H](CO)[C@@H](O)[C@@H]1O` [PAROMAMINE]: the IC50 in test [5] amounted to 3.9 µM.

As a reminder, the IC50 is the concentration at which inhibition is half-maximal.
